US4031243A, “2-(4-Isobutyl phenyl)butyric acid, salts thereof, and pharmaceutical compositions containing the same” (priority 1975, dated 1977)

What was measured:
gastric lining = assay: General statements on toxicity, gastric tolerance and activity; conditions: capsule, 100 to 300 milligrams, with talcum and magnesium stearate
[1] = Dissolution of capsule in the stomach (statement); type: physicochemical; conditions: 100 to 300 milligrams, with talcum and magnesium stearate
Ulcerogenic assay = type: in vivo, rat; conditions: rat, in vivo; dose which produces 50% of the maximum possible score points in one group of rats; lineal regression; read-out: UD50 (the source's name)
From the text: (§1) Described by S. Wong, J. F. Gardocki and T. P. Pruss in J. Pharm. Exper.
(§2) UD50 represents the dose in milligrams per kilogram of body weight that is based upon a point scale as follows:
(§3) 3 -- ulceration with craters
(§4) U.S. 50 Half ulcerogenic dose -- dose which produces 50% of the
(§5) maximum possible score points in one group of rats.

mucosa = assay: Ulcerogenic assay; type: in vivo, rat; conditions: 20 rats, scale 0 no ulcers to 3 ulceration with craters
From the text: as §1, §2, §3, §4, §5

[2] = test system: edema produced by administration of carageenin; assay: animal or person; type: in vivo, rat; design: Increment of Edema ± SEM: unit not given here; conditions: for ED50: Rattus norvegicus, lineal regression; for "+" animals, printed in place of increment of edema: rat, in vivo
From the text: Antiinflammatory activity: Acute rat paw edema test Described by C. H. Winter, E. A. Risley and G. W. Nuss in a paper entitled "[…]-induced edema in hind paw of the rat as an assay for antiinflammatory drugs", published in Proc. Soc. Exp. Biol. Med., volume 111, page 544 (1962). ED50 in this test represents the effective dose in milligrams per kilogram of body weight that is required to inhibit edema produced by administration of carageenin to the rat.

granulation tissue = assay: Antiinflammatory activity: Formation of granulation tissue in the rat; type: in vivo; conditions: oral; for ED50: Rattus norvegicus, 50% inhibition of granulation tissue, lineal regression; for Weight of granulated tissue ± SEM: control 198 ± 3.63, in mg (unit assumed)
From the text: Antiinflammatory activity: Formation of granulation tissue in the rat
Described by N. Pisanti, G. Volterra and A. Meli, in a paper entitled "Pharmacological data on a new antiinflammatory agent", published in Il Farmaco(Ed. Scientifica) vol. 38, page 51 (1973).
ED50 in this test represents the effective dose in milligrams per kilogram of body weight that is required to inhibit by an increment of 50% the formulation of granulation tissue in the rat.

[3] = Analgesic activity: Hot-plate test; type: in vivo; conditions: for Reaction time Half ± SEM: control 103.3 ± 7.9
[4] = Analgesic activity: Tail pinch test in the mouse; type: in vivo; conditions: for ED50: Mus musculus; for Animals Not protected, TOTALS / Animals Protected, TOTALS: all doses (60-240 mg/kg)
From the text: Analgesic activity: Tail pinch test in the mouse Described by F. Haffner in Deutsch. med. […] ED50 in this test represents the effective dose in milligrams per kilogram of body weight that is required to increase the reaction time by a factor of at least 3 over the reaction time of the same animal before the test substance had been administered.

[5] = 144 h, Table 2, oral, administration 6 days
[6] = Table 1, oral, 120 mg/kg, control 14.80 ± 0.94
[7] = Table 1, oral, 180 mg/kg, control 14.80 ± 0.94
[8] = Table 1, oral, 240 mg/kg, control 14.80 ± 0.94
[9] = Table 2, oral, 120 mg/kg, administration 6 days
[10] = Table 2, oral, 120 mg/kg, administration 6 days, control 15.35 ± 0.31
[11] = Table 2, oral, 180 mg/kg, administration 6 days
[12] = Table 2, oral, 180 mg/kg, administration 6 days, control 15.35 ± 0.31
[13] = Table 2, oral, 240 mg/kg, administration 6 days
[14] = Table 2, oral, 240 mg/kg, administration 6 days, control 15.35 ± 0.31
[15] = Table 3, I.P., 120 mg/kg, control 12.50 ± 1.66

## CCC(C(=O)[O-])c1ccc(CC(C)C)cc1.[Na+] (centres unmarked)
Gastric lining
  gastric upset or irritation: without producing a gastric upset or irritation
[1]
  dissolution in the stomach: dissolves well in the stomach

## CCCCC1C(=O)N(c2ccccc2)N(c2ccccc2)C1=O [Phenylbutazone, reference compound]
Ulcerogenic assay
  TD50: 226 mg/kg
mucosa; 60 mg/kg/day
  Point score: 8
mucosa; 120 mg/kg/day
  Point score: 17
mucosa; 240 mg/kg/day
  Point score: 32
[2]; [5]
  ED50: 177 mg/kg
[2]; Table 1, oral
  ED50: 77.1 mg/kg
[2]; Table 1, oral, 120 mg/kg
  % Inhibition: 56.08%
[2]; [6]
  Increment of Edema ± SEM: 6.50 ± 1.02
[2]; Table 1, oral, 180 mg/kg
  % Inhibition: 64.86%
[2]; [7]
  Increment of Edema ± SEM: 5.20 ± 0.41
[2]; Table 1, oral, 240 mg/kg
  % Inhibition: 70.94%
[2]; [8]
  Increment of Edema ± SEM: 4.30 ± 0.89
[2]; [9]
  % Inhibition: 34.85%
[2]; [10]
  Increment of Edema ± SEM: 10.00 ± 0.73
[2]; [11]
  % Inhibition: 42.28%
[2]; [12]
  Increment of Edema ± SEM: 8.86 ± 0.36
[2]; [13]
  % Inhibition: 69.64%
[2]; [14]
  Increment of Edema ± SEM: 4.66 ± 0.54
[2]; Table 3, I.P., 120 mg/kg
  % Inhibition: 45.36%
[2]; [15]
  Increment of Edema ± SEM: 6.83 ± 0.94
[2]; ip, 240 mg/kg
  "+" animals, printed in place of increment of edema: + four animals
[2]; ip, 360 mg/kg
  "+" animals, printed in place of increment of edema: + five animals
Granulation tissue
  ED50: 264 mg/kg
Granulation tissue; 120 mg/kg
  % Inhibition: 15.65%
  Weight of granulated tissue ± SEM: 167 ± 8.25
Granulation tissue; 180 mg/kg
  % Inhibition: 35.35%
Granulation tissue; 240 mg/kg
  % Inhibition: 44.94%
  Weight of granulated tissue ± SEM: 109 ± 8.77

## CCC(C(=O)O)c1ccc(CC(C)C)cc1 (centres unmarked) [2-(4-Isobutylphenyl)butyric acid, 2-(4-isobutylphenyl) butyric acid]
mucosa; 60 mg/kg/day
  Point score: 2
mucosa; 120 mg/kg/day
  Point score: 7
mucosa; 240 mg/kg/day
  Point score: 14
[2]; [5]
  ED50: 204 mg/kg
[2]; ip, Table 3, I.P.
  ED50: 133 mg/kg
[2]; Table 1, oral
  ED50: 116 mg/kg
[2]; Table 1, oral, 120 mg/kg
  % Inhibition: 51.01%
[2]; [6]
  Increment of Edema ± SEM: 7.25 ± 1.00
[2]; Table 1, oral, 180 mg/kg
  % Inhibition: 58.10%
[2]; [7]
  Increment of Edema ± SEM: 6.20 ± 0.84
[2]; Table 1, oral, 240 mg/kg
  % Inhibition: 66.21%
[2]; [8]
  Increment of Edema ± SEM: 5.00 ± 0.97
[2]; [9]
  % Inhibition: 24.03%
[2]; [10]
  Increment of Edema ± SEM: 11.66 ± 0.67
[2]; [11]
  % Inhibition: 40.97%
[2]; [12]
  Increment of Edema ± SEM: 9.06 ± 0.39
[2]; [13]
  % Inhibition: 60.06%
[2]; [14]
  Increment of Edema ± SEM: 6.13 ± 0.35
[2]; Table 3, I.P., 120 mg/kg
  % Inhibition: 49.36%
[2]; [15]
  Increment of Edema ± SEM: 6.33 ± 0.88
[2]; Table 3, I.P., 240 mg/kg
  % Inhibition: 64.00%
[2]; Table 3, I.P., 240 mg/kg, control 12.50 ± 1.66
  Increment of Edema ± SEM: 4.50 ± 1.05
[2]; Table 3, I.P., 360 mg/kg
  % Inhibition: 92.96%
[2]; Table 3, I.P., 360 mg/kg, control 12.50 ± 1.66
  Increment of Edema ± SEM: 0.88 ± 0.26
Granulation tissue
  ED50: 252 mg/kg
Granulation tissue; 120 mg/kg
  % Inhibition: 11.11%
  Weight of granulated tissue ± SEM: 176 ± 13.09
Granulation tissue; 180 mg/kg
  % Inhibition: 34.34%
  Weight of granulated tissue ± SEM: 130 ± 8.54
Granulation tissue; 240 mg/kg
  % Inhibition: 46.46%
  Weight of granulated tissue ± SEM: 106 ± 9.97
[3]; oral, 60 mg/kg
  % Increase of Reaction time: 7.0%
  Reaction time Half ± SEM: 110.6 ± 7.0 s
[3]; oral, 120 mg/kg
  % Increase of Reaction time: 35.0%
  Reaction time Half ± SEM: 139.5 ± 10.7 s
[3]; oral, 180 mg/kg
  % Increase of Reaction time: 37.0%
  Reaction time Half ± SEM: 142.3 ± 7.6 s
[3]; oral, 240 mg/kg
  % Increase of Reaction time: 78.4%
  Reaction time Half ± SEM: 184.3 ± 13.1 s
[3]; oral, increase by 50% of reaction time, lineal regression, read-out: ED50
  ED50: 162 mg/kg
[4]; oral, reaction time increased by factor of at least 3, lineal regression, read-out: ED50
  ED50: 118 mg/kg
[4]; oral, 60 mg/kg
  % Protection: 15%
  Animals Not protected: 17
  Animals Protected: 3
[4]; oral, 120 mg/kg
  % Protection: 50%
  Animals Not protected: 10
  Animals Protected: 10
[4]; oral, 180 mg/kg
  % Protection: 70%
  Animals Not protected: 6
  Animals Protected: 14
[4]; oral, 240 mg/kg
  % Protection: 90%
  Animals Not protected: 2
  Animals Protected: 18
[4]; oral
  Animals Not protected, TOTALS: 35
  Animals Protected, TOTALS: 45

## CC(=O)Oc1ccccc1C(=O)O [Aspirin, reference compound]
[3]; oral, 120 mg/kg
  % Increase of Reaction time: 22.7%
  Reaction time Half ± SEM: 126.8 ± 13.7 s
[3]; oral, 180 mg/kg
  % Increase of Reaction time: 57.4%
  Reaction time Half ± SEM: 162.6 ± 8.0 s
[3]; oral, 240 mg/kg
  % Increase of Reaction time: 69.5%
  Reaction time Half ± SEM: 175.1 ± 5.9 s
[3]; po
  ED50: 173 mg/kg
[4]; po
  ED50: 115 mg/kg
[4]; oral, 60 mg/kg
  % Protection: 13.3%
  Animals Not protected: 13
  Animals Protected: 2
[4]; oral, 120 mg/kg
  % Protection: 53.3%
  Animals Not protected: 7
  Animals Protected: 8
[4]; oral, 180 mg/kg
  % Protection: 73.3%
  Animals Not protected: 4
  Animals Protected: 11
[4]; oral, 240 mg/kg
  % Protection: 93.3%
  Animals Not protected: 1
  Animals Protected: 14
[4]; oral
  Animals Not protected, TOTALS: 25
  Animals Protected, TOTALS: 35
